In the NIST ThermoML archive (doi:10.1016/j.jct.2015.02.011):

Test: refractive index (Na D-line) (dimensionless); xn = mol fraction of the nth substance listed
Conditions: 100.7 kPa, Liquid, Standard Abbe refractometry

CCCCn1cc[n+](C)c1.F[P-](F)(F)(F)(F)F [1-butyl-3-methylimidazolium hexafluorophosphate] + C1CCOC1
refractive index
Conditions	x1 = 0.0871	x1 = 0.1801	x1 = 0.2893	x1 = 0.3939	x1 = 0.4994	x1 = 0.5709	x1 = 0.7163	x1 = 0.8069	x1 = 0.9012	x1 = 1
293.15 K	1.41126	1.41369	1.41462	1.41441	1.41373	1.41332	1.41236	1.41205	1.41131	1.41068
298.15 K	1.40906	1.41157	1.41279	1.41273	1.41208	1.4117	1.41089	1.41059	1.41014	1.40943
303.15 K	1.40701	1.40957	1.41105	1.41113	1.41065	1.41025	1.40964	1.40935	1.40895	1.40818
308.15 K	1.40475	1.40747	1.40915	1.40938	1.4092	1.40877	1.40818	1.40793	1.40778	1.40693
313.15 K	1.40262	1.40554	1.40754	1.40784	1.40779	1.40748	1.40693	1.40681	1.40666	1.40567
318.15 K	1.40012	1.40345	1.40558	1.40611	1.40619	1.40595	1.40552	1.40541	1.40525	1.40443
323.15 K	1.39781	1.40139	1.40377	1.40455	1.40451	1.40452	1.40428	1.40425	1.40393	1.40312
